{
  "source": "patent EP0374725A2",
  "about": "“Transdermal therapeutic system having norpseudoephedrine as the active compound” (LTS Lohmann Therapie-Systeme GmbH & Co. KG, priority 1988, dated 1990)",
  "origin": "cited, not measured here",
  "details": "background statement, amphetamines as medium-strong bases",
  "data": [
    {"smiles": "C[C@H](N)[C@@H](O)c1ccccc1", "note": "[D-Norpseudoephedrin]", "values": [
      {"measurement": "pka-Wert", "value": "8,9"}
    ]}
  ]
}
